Reference: ChEMBL document CHEMBL6177993, “De Novo 3-(Phenylcarbamoyl) Benzoate Analogues: Efficacy against Multidrug-Resistant S. aureus and Elucidation of the Biodistribution Profile” (J Med Chem, 2025)
Converted amounts (≈) assume the structure as drawn. The source made the active and inactive calls. The calls are words filed in the database; no cut-off is given here.

Legend:
Enterococcus faecalis = test: Antibacterial activity against Enterococcus faecalis ATCC 35550 assessed as reduction in bacterial growth measured after 18 to 24 hrs by broth microdilution method; format: functional; conditions: time 18-24 hrs
Bacillus subtilis = test: Antibacterial activity against Bacillus subtilis IITKSM1 assessed as reduction in bacterial growth measured after 18 to 24 hrs by broth microdilution method; format: functional; conditions: time 18-24 hrs
Klebsiella pneumoniae = test: Antibacterial activity against Klebsiella pneumoniae BAA 1705 assessed as reduction in bacterial growth measured after 18 to 24 hrs by broth microdilution method; format: functional; conditions: time 18-24 hrs
Acinetobacter baumannii = test: Antibacterial activity against Acinetobacter baumannii BAA 1605 assessed as reduction in bacterial growth measured after 18 to 24 hrs by broth microdilution method; format: functional; conditions: time 18-24 hrs
Pseudomonas aeruginosa = test: Antibacterial activity against Pseudomonas aeruginosa ATCC 27853 assessed as reduction in bacterial growth measured after 18 to 24 hrs by broth microdilution method; format: functional; conditions: time 18-24 hrs
[1] = Solubility of the compound in distilled water; format: physicochemical; conditions: buffer
[2] = Solubility of the compound in DMSO/DMF; format: physicochemical
Staphylococcus aureus [3] = test: Antibacterial activity against methicillin-resistant Staphylococcus aureus NRS 119 assessed as reduction in bacterial growth measured after 18 to 24 hrs by broth microdilution method; format: functional; conditions: time 18-24 hrs
Staphylococcus aureus [4] = test: Antibacterial activity against methicillin-resistant Staphylococcus aureus NRS 191 assessed as reduction in bacterial growth measured after 18 to 24 hrs by broth microdilution method; format: functional; conditions: time 18-24 hrs
Staphylococcus aureus [5] = test: Antibacterial activity against methicillin-resistant Staphylococcus aureus NRS 192 assessed as reduction in bacterial growth measured after 18 to 24 hrs by broth microdilution method; format: functional; conditions: time 18-24 hrs
Staphylococcus aureus [6] = test: Antibacterial activity against methicillin-resistant Staphylococcus aureus NRS 193 assessed as reduction in bacterial growth measured after 18 to 24 hrs by broth microdilution method; format: functional; conditions: time 18-24 hrs
Staphylococcus aureus [7] = test: Antibacterial activity against methicillin-resistant Staphylococcus aureus NRS 194 assessed as reduction in bacterial growth measured after 18 to 24 hrs by broth microdilution method; format: functional; conditions: time 18-24 hrs
Staphylococcus aureus [8] = test: Antibacterial activity against methicillin-resistant Staphylococcus aureus NRS 198 assessed as reduction in bacterial growth measured after 18 to 24 hrs by broth microdilution method; format: functional; conditions: time 18-24 hrs
Staphylococcus aureus [9] = test: Antibacterial activity against vacomycin-resistant Staphylococcus aureus VRS 1 assessed as reduction in bacterial growth measured after 18 to 24 hrs by broth microdilution method; format: functional; conditions: time 18-24 hrs
Staphylococcus aureus [10] = test: Antibacterial activity against vacomycin-resistant Staphylococcus aureus VRS 4 assessed as reduction in bacterial growth measured after 18 to 24 hrs by broth microdilution method; format: functional; conditions: time 18-24 hrs
[11] = Hemolytic activity in human Red blood cell at 32 ug/ml measured after 1 hrs by spectrophotometric analysis relative to control; format: toxicity, cell-based, Erythrocyte; conditions: red blood cells, at 32 µg/mL, read-out: Activity
Staphylococcus aureus [12] = test: Inhibition of biofilm in Staphylococcus aureus ATCC 29213 at 1 times MIC measured after 12 hrs by crystal violet staining based analysis relative to control; format: functional
Staphylococcus aureus [13] = test: Inhibition of biofilm in Staphylococcus aureus ATCC 29213 at 0.5 times MIC measured after 12 hrs by crystal violet staining based analysis relative to control; format: functional
Staphylococcus aureus [14] = test: Inhibition of biofilm in Staphylococcus aureus ATCC 29213 at 2 times MIC measured after 12 hrs by crystal violet staining based analysis relative to control; format: functional
Staphylococcus aureus [15] = test: Inhibition of biofilm in Staphylococcus aureus ATCC 29213 at 1 ug/ml measured after 12 hrs by crystal violet staining based analysis; format: functional, organism-based; conditions: dose 1.0 µg/ml
Staphylococcus aureus [16] = test: Antibiofilm activity in Staphylococcus aureus ATCC 29213 assessed as disruption of preformed biofilm at 40 times MIC measured after 24 hrs by crystal violet staining based assay relative to control; format: functional
Staphylococcus aureus [17] = test: Antibiofilm activity in Staphylococcus aureus ATCC 29213 assessed as disruption of preformed biofilm at 1 times MIC measured after 24 hrs by crystal violet staining based assay relative to control; format: functional
Staphylococcus aureus [18] = test: Antibiofilm activity in Staphylococcus aureus ATCC 29213 assessed as disruption of preformed biofilm at 5 times MIC measured after 24 hrs by crystal violet staining based assay relative to control; format: functional
Staphylococcus aureus [19] = test: Antibiofilm activity in Staphylococcus aureus ATCC 29213 assessed as disruption of preformed biofilm at 10 times MIC measured after 24 hrs by crystal violet staining based assay relative to control; format: functional
Staphylococcus aureus [20] = test: Bactericidal activity against Staphylococcus aureus ATCC 29213 at 4 to 8 time MIC measured within 60 mins by time-kill assay; format: functional, organism-based
Staphylococcus aureus [21] = test: Antibacterial activity against Staphylococcus aureus ATCC 29213 measured after 20 passages; format: functional, organism-based
Cell membrane [22] = test: Disruption of cell membrane in Staphylococcus aureus ATCC 29213 assessed as increase in red fluorescence at 5 to 10 times MIC measured after 4 hrs by DAPI and PI staining based fluorescence microscopic analysis
Cell membrane [23] = test: Disruption of cell membrane in Staphylococcus aureus ATCC 29213 assessed as increase in PI uptake at 10 times MIC measured after 8 mins by fluorescence based microplate reader analysis
Staphylococcus aureus [24] = test: Antibacterial activity against Staphylococcus aureus ATCC 29213 infected in female BALB/c mouse skin infection model assessed as appearance of smooth dorsal skin at 10 times MIC pre-infected with bacteria followed by compound addition and measured after 24 hrs; format: functional, organism-based
Staphylococcus aureus [25] = test: Antibacterial activity against Staphylococcus aureus ATCC 29213 infected in female BALB/c mouse skin infection model assessed as reduction in skin lesions at 10 times MIC pre-infected with bacteria followed by compound addition and measured after 24 hrs; format: functional, organism-based
Staphylococcus aureus [26] = test: Antibacterial activity against Staphylococcus aureus ATCC 29213 infected in female BALB/c mouse skin infection model assessed as reduction of abscess in subcutaneous tissue at 10 times MIC pre-infected with bacteria followed by compound addition and measured after 24 hrs; format: functional, organism-based
Staphylococcus aureus [27] = test: Antibacterial activity against Staphylococcus aureus ATCC 29213 infected in female BALB/c mouse skin infection model assessed as reduction in number of bacterial cells in skin at 10 times MIC pre-infected with bacteria followed by compound addition and measured after 24 hrs; format: functional, organism-based
Staphylococcus aureus [28] = test: Antibacterial activity against Staphylococcus aureus ATCC 29213 infected in female BALB/c mouse skin infection model assessed as reduction in bacterial load at 10 times MIC pre-infected with bacteria followed by compound addition and measured after 24 hrs relative to control; format: functional; design: scale not given: the % may be the effect or the level left
Staphylococcus aureus [29] = test: Antibacterial activity against Staphylococcus aureus ATCC 29213 infected in female BALB/c mouse skin infection model assessed as log reduction in bacterial load at 10 times MIC pre-infected with bacteria followed by compound addition and measured after 24 hrs; format: functional
[30] = Toxicity in female BALB/c mouse assessed as effect on body weight measured after 24 hrs; conditions: in vivo
[31] = Toxicity in female BALB/c mouse assessed as effect on heart measured after 24 hrs by H and E staining based analysis; format: tissue-based; conditions: in vivo
[32] = Drug distribution in female BALB/c mouse heart measured after 24 hrs; format: ADME, tissue-based; conditions: in vivo
[33] = Drug distribution in female BALB/c mouse skin measured after 24 hrs; format: ADME, tissue-based, Skin of body; conditions: in vivo
[34] = Drug distribution in female BALB/c mouse spleen measured after 24 hrs; format: ADME, tissue-based; conditions: in vivo
[35] = Drug distribution in female BALB/c mouse liver measured after 24 hrs; format: ADME, tissue-based; conditions: in vivo
[36] = Drug distribution in female BALB/c mouse kidney measured after 24 hrs; format: ADME, tissue-based; conditions: in vivo

## O=C(O)c1cccc(C(=O)Nc2c(C(c3ccc(F)cc3)c3ccc(F)cc3)cc(Cl)cc2C(c2ccc(F)cc2)c2ccc(F)cc2)c1
Enterococcus faecalis
  MIC: 1 µg/mL (≈ 1.47 µM)
Bacillus subtilis
  MIC: 1 µg/mL (≈ 1.47 µM)
Klebsiella pneumoniae
  MIC: > 64 µg/mL
Acinetobacter baumannii
  MIC: > 64 µg/mL
Pseudomonas aeruginosa
  MIC: > 64 µg/mL
[1]
  solubility: Insoluble
[2]
  solubility: 570 mg/mL (≈ 838000 µM)
Staphylococcus aureus [3]
  MIC: 2 µg/mL (≈ 2.94 µM)
Staphylococcus aureus [4]
  MIC: 2 µg/mL (≈ 2.94 µM)
Staphylococcus aureus [5]
  MIC: 2 µg/mL (≈ 2.94 µM)
Staphylococcus aureus [6]
  MIC: 2 µg/mL (≈ 2.94 µM)
Staphylococcus aureus [7]
  MIC: 2 µg/mL (≈ 2.94 µM)
Staphylococcus aureus [8]
  MIC: 2 µg/mL (≈ 2.94 µM)
Staphylococcus aureus [9]
  MIC: 2 µg/mL (≈ 2.94 µM)
Staphylococcus aureus [10]
  MIC: 2 µg/mL (≈ 2.94 µM)
[11]
  hemolysis at 1 h, 32 ug/ml: 70%
Staphylococcus aureus [12]
  inhibition (INH): 91%
Staphylococcus aureus [13]
  inhibition (INH): >50%
Staphylococcus aureus [14]
  inhibition (INH): 95%
Staphylococcus aureus [15]
  inhibition: Active
Staphylococcus aureus [16]
  Activity: 31.47%
Staphylococcus aureus [17]
  Activity: 7.29%
Staphylococcus aureus [18]
  Activity: 7.1%
Staphylococcus aureus [19]
  Activity: 11.84%
Staphylococcus aureus [20]
  Activity: Active
Staphylococcus aureus [21]
  Activity: Active
Cell membrane [22]
  Activity: Active
Cell membrane [23]
  Activity: Active
Staphylococcus aureus [24]
  Activity: Active
Staphylococcus aureus [25]
  Activity: Active
Staphylococcus aureus [26]
  Activity: Active
Staphylococcus aureus [27]
  Activity: Active
Staphylococcus aureus [28]
  Activity: ~83%
Staphylococcus aureus [29]
  Activity: 0.8 log10CFU/ml
[30]
  Activity: Non-toxic
[31]
  Activity: Non-toxic
[32]
  Drug uptake: 7.7 nmol/mg
[33]
  Drug uptake: 5.93 nmol/mg
[34]
  Drug uptake: 9.01 nmol/mg
[35]
  Drug uptake: 3.92 nmol/mg
[36]
  Drug uptake: 4.02 nmol/mg
